Source: patent US6376198B1, “Assay for non-peptide agonists to peptide hormone receptors” (New England Medical Center Hospitals, Inc., priority 1995, dated 2002)
Where a chain is given by its changes, count along the chain named. Entries after “also recorded” stand apart in the source; their conditions may differ.

Legend:
[1] = molecular target: T1, human CCK-B/gastrin receptor (wild-type) (Homo sapiens, UniProt P32239); experiment: Total inositol phosphate production, COS-7 cells expressing wild-type receptor; format: cell-based; settings: for IC50: 95% C.I. in brackets, read-out: Wild-type receptor IC50(nM) 95% C.I., signaling potency
T1 construct: expressed in transfected cells; host or cells: COS-7
T1 sequence (P32239 1-447): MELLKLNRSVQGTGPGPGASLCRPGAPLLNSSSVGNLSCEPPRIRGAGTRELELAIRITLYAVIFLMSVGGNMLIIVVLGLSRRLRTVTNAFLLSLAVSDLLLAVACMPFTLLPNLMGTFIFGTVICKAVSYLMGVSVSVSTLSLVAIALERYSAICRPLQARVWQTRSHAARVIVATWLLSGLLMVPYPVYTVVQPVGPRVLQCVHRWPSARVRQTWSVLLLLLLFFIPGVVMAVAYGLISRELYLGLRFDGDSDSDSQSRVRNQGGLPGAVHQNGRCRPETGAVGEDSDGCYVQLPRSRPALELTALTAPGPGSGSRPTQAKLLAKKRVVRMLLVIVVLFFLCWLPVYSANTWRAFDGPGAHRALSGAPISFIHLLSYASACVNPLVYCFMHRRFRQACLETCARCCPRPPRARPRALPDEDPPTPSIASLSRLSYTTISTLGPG

[2] = molecular target: T2, human CCK-B/gastrin receptor 325L→E mutant (Homo sapiens, UniProt P32239, L325E); experiment: Total inositol phosphate production, COS-7 cells expressing constitutively active mutant; format: cell-based; settings: for IC50: 325L→E mutant, 95% C.I. in brackets, read-out: 325L→E Mutant IC50(nM) 95% C.I., signaling potency; for intrinsic activity / functional classification: constitutively active 325L→E mutant
T2 construct: expressed in transfected cells; host or cells: COS-7
T2 sequence (P32239 1-447 L325E): T1 sequence (P32239 1-447) with L325E

[3] = molecular target: T3, mutant human CCK-A receptor pMHA35 (Homo sapiens, UniProt P32238, E138Q); experiment: Intrinsic activity at mutant CCK-A receptor pMHA35 (138-ERY-140 to QRY); format: cell-based; settings: basal signaling not increased
T3 construct: expressed in transfected cells; host or cells: COS-7 (inferred from the general inositol phosphate method)
T3 sequence (P32238 1-428 E138Q): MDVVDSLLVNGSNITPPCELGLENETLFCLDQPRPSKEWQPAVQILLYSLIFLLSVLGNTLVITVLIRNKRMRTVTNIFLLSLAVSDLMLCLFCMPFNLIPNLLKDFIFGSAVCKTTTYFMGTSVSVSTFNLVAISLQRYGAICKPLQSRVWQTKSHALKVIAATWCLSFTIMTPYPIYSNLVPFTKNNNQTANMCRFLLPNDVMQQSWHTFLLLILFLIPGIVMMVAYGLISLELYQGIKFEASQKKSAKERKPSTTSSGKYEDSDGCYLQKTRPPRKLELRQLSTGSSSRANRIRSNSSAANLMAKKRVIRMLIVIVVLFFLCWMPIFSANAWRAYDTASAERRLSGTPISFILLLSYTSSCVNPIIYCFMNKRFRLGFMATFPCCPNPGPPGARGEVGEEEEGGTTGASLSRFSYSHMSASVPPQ
Source text: An example is given of a mutant human CCK-A receptor that enhances the intrinsic activity of the partial ‘peptoid’ agonist PD 135,158, yet causes no apparent increase in agonist-independent basal receptor activity, is the mutant CCK-A receptor pMHA35. pMHA35 was made by replacing amino acids 138-ERY-140 of the human wild-type CCK-A receptor with QRY in the vector pcDNAI. (See FIG. 2 for an illustration of the wild-type CCK-A receptor amino acid sequence.)
This method, based on alignment, was employed to construct a CCK-A mutant receptor. A multiple alignment map was made which included the human and rat CCK-A sequences, the mastomys, rat, human, and canine CCK-B/gastrin receptor, and a Xenopus CCK-A/CCK-B intermediate receptor (CCK-XL; FIG. 2). Based on this map, conserved amino acids 138-ERY-140 of the CCK-A receptor were replaced with amino acids QRY, based on a known constitutively active rhodopsin mutant with enhanced transducin activation (Arnis et al., J. Biol. Chem., 269:23879-81, 1994). The altered amino acid residues are positioned in transmembrane domain III and flank the second intracellular loop.

[4] = molecular target: T2, human CCK-B/gastrin receptor 325L→E mutant; experiment: 125I-CCK-8 competition binding, COS-7 cells expressing constitutively active mutant; settings: read-out: 325L→E Mutant Ki(nM), 125I CCK-8 binding affinity
Procedure: (§1) The binding of a ligand to a CCK receptor, e.g., the CCK-A or the CCK-B/gastrin receptor, can be measured according to the following example. In this example, the binding affinity of a ligand to the human CCK-B/gastrin receptor is measured.
Twenty-four hours after transfection cells were split into 24-well dishes (2×10^4 cells/well) (Costar). After an additional 24 hours, competition binding experiments were performed in Hank's buffer supplemented with 25 mM phenylmethylsulfonyl fluoride (PMSF). […] Equilibrium binding occurred after incubation for 80 min. at 37° C. Cell monolayers were then washed three times, hydrolyzed in 1 N NaOH, and the amount of radioactivity to the receptor was quantified. […] All binding experiments were repeated three to five times.
(§2) The competition data were analyzed using computer software which is specifically designed for the purpose of radioligand binding assays (Inplot 4.0, GraphPad, San Diego, Calif.).

[5] = molecular target: T1, human CCK-B/gastrin receptor (wild-type); experiment: 125I-CCK-8 competition binding, COS-7 cells expressing wild-type receptor; settings: for Ratio (Wild-type/Mutant) of Ki: binding affinities; for Ki: wild-type receptor, read-out: Wild-type receptor Ki(nM), 125I CCK-8 binding affinity
Procedure: as §1
Twenty-four hours after transfection cells were split into 24-well dishes (2×10^4 cells/well) (Costar). After an additional 24 hours, competition binding experiments were performed in Hank's buffer supplemented with 25 mM phenylmethylsulfonyl fluoride (PMSF). […] Equilibrium binding occurred after incubation for 80 min. at 37° C. Cell monolayers were then washed three times, hydrolyzed in 1 N NaOH, and the amount of radioactivity to the receptor was quantified.
as §2

[6] = molecular target: human wild-type CCK-B receptor (Homo sapiens, UniProt P32239); settings: 10^-7 M
Procedure: Measurement of [Ca^2+]: Forty-eight hours after transfection with hCCKB-pcDNAI, COS-7 cells were loaded with the Ca^2+ fluorophore fura-2 in modified Krebs-Ringer bicarbonate buffer. […] Extracellular calcium can be chelated with EGTA (2.5 mM) to confirm that a gastrin-induced increase in [Ca^2+] originates primarily from intracellular [Ca^2+] pools.

rat CCK-A = settings: single experiment
Xenopus CCK receptor = Xenopus CCK receptor (Xenopus laevis, UniProt P70031); settings: single experiment
Xenopus CCK receptor, sequence (P70031 whole entry): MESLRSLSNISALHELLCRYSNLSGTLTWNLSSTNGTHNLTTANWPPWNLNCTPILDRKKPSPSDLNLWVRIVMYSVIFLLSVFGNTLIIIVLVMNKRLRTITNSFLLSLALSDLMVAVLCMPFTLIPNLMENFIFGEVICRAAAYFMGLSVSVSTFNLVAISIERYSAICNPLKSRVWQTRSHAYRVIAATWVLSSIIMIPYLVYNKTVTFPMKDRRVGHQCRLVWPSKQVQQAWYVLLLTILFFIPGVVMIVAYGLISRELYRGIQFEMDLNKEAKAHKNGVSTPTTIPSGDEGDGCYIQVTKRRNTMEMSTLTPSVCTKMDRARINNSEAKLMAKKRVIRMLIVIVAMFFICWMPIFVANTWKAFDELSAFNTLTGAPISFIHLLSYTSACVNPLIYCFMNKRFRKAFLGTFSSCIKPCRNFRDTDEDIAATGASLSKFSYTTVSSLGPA
Procedure: COS-7 cells transfected with receptor cDNA-pcDNAI were cultured in inositol-free, serum-free Dulbecco's modified Eagle's medium (DMEM, GIBCO), supplemented with 3 μCi/ml ^3 H-myo-inositol (NEN, 45-80 Ci/mmol), for 18 hours prior to analysis. The cells were then washed twice with DMEM/10 mM LiCl2 and twice with phosphate-buffered saline/10 mM LiCl2. After stimulation with putative agonists in phosphate-buffered saline 10/mM LiCl2 for 30 minutes at 37° C., cells were scraped in ice-cold methanol. […] The upper phase was analyzed for inositol phosphates by strong anion exchange chromatography, using Dowex 1-X8 columns (BIORAD) and differential elution with water/60 mM ammonium fornate/2 M ammonium fornate. Eluted radioactivity was measured by liquid scintillation counting, and inositol phosphate content was expressed as a percentage of total ^3H-radioactivity applied to the columns.
In FIG. 11, basal levels of inositol phosphate production were measured for human CCK-A hCCK-A), human CCK-B (hCCK-B), dog CCK-B (dCCK-B), mouse CCK-B (mCCK-B), and the mastomys CCK receptor (FIG. 11, part A), and expressed relative to the basal level of hCCK-B.
Single experiments were also performed for the rat CCK-B/gastrin receptor and for the related Xenopus CCK receptor (Table 2).

Row | Compound | intrinsic activity / functional classification ([1]; wild-type receptor) | intrinsic activity / functional classification [2] | Ki [4] [nM] | Ratio (Wild-type/Mutant) of Ki [5] | Ki [5] [nM] | further results
1 | Cc1cccc(NC(=O)N[C@@H]2N=C(c3ccccc3)c3ccccc3N(C)C2=O)c1 [L-365,260] | barely detectable, yet significant, increase in inositol phosphate production |  |  |  |  | efficacy compared to the full agonist CCK-8s (inositol phosphate) ([2]; 325L→E constitutively active mutant): 62%
2 | CC1(C)[C@H]2CC[C@@]1(C)[C@H](OC(=O)N[C@](C)(Cc1c[nH]c3ccccc13)C(=O)NC[C@H](NC(=O)CCC(=O)O)c1ccccc1)C2 [PD 135,158] | partial agonists | almost full agonists | 1.01 ± 0.19 | 2.23 | 2.25 ± 0.61 | Ratio (Wild-type/Mutant) of signaling potencies [1]: 1.04; IC50 ([1]; wild-type receptor): 1.05 nM; intrinsic activity at mutant versus wild-type CCK-A receptor [3]: significantly increased; IC50 [2]: 1.01 nM
3 | C[C@](Cc1c[nH]c2ccccc12)(NC(=O)OC1C2CC3CC(C2)CC1C3)C(=O)NC[C@H](NC(=O)/C=C/C(=O)O)c1ccccc1 (stereo partly drawn) [PD 136,450] | partial agonists | almost full agonists | 0.59 ± 0.12 | 1.68 | 0.99 ± 0.1 | Ratio (Wild-type/Mutant) of signaling potencies [1]: 0.62; IC50 ([1]; wild-type receptor): 0.36 nM; IC50 [2]: 0.58 nM
4 | Cc1cccc(NC(=O)N[C@@H]2N=C(c3ccccc3)c3ccccc3N(CC(=O)c3ccccc3C)C2=O)c1 [YM022] | almost no intrinsic activity | almost no intrinsic activity; also recorded: weak inverse agonist | 0.08 ± 0.01 | 0.88 | 0.07 ± 0.01 | pA2, block of CCK-8s induced inositol phosphate production ([1]; wild-type receptor, agonist CCK-8s): 9.78; pA2, block of CCK-8s induced inositol phosphate production ([2]; constitutively active receptor, agonist CCK-8s): 9.37; pA2, block of L-740,093 S induced inositol phosphate production ([2]; constitutively active receptor, agonist L-740,093 S (FIG. 4)): 9.54
5 | CCK-8s |  |  |  |  |  | change in free cytosolic calcium [Ca2+]i [6]: marked increase in free cytosolic calcium; CCK-8s stimulated (% human basal) inositol phosphate (rat CCK-A): 684 % human basal; CCK-8s stimulated (% human basal) inositol phosphate (Xenopus CCK receptor): 442 % human basal
6 | azabicyclo[3.2.2]nonane benzodiazepine [L-740,093 R] |  | reduces the basal activity of the constitutively active receptor almost to wild-type levels | 0.18 ± 0.04 | 1.06 | 0.19 ± 0.02 | 
7 | azabicyclo[3.2.2]nonane benzodiazepine [L-740,093 S] |  | almost a full agonist | 16 ± 1.4 | 1.22 | 19.5 ± 1.5 | efficacy compared with CCK-8s (inositol phosphate) ([1]; human wild-type receptor): 25%
